Test results from patent US10221163B2 (priority 2015, dated 2019).
Read-outs that look alike come from different tables or passages of the source.

Experiments:
[1] = molecular target: IMP-1 (Serratia marcescens, UniProt P52699); test: biochemical; type: biochemical; details: fluorescence assay, CCF2-FA substrate, 2 pM enzyme, 2 hours at 25° C.; read-out: IMP-1 IC50
Method in brief: (§1)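 Enzyme activity was measured by fluorescence using CCF2-FA, a cephalosporin-linked 7-hydroxycoumarin/fluorescein substrate, with inhibitor, metallo-β-lactamase and substrate incubated together for 2 hours at 25° C. IC50 came from a 4-parameter fit of inhibition versus log inhibitor concentration.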

[2] = molecular target: NDM-1 (Klebsiella pneumoniae, UniProt C7C422); test: biochemical; type: biochemical; details: fluorescence assay, CCF2-FA substrate, 1 pM enzyme, 2 hours at 25° C.; read-out: NDM-1 IC50
Chain of NDM-1 (C7C422 whole entry, looked up, species assumed): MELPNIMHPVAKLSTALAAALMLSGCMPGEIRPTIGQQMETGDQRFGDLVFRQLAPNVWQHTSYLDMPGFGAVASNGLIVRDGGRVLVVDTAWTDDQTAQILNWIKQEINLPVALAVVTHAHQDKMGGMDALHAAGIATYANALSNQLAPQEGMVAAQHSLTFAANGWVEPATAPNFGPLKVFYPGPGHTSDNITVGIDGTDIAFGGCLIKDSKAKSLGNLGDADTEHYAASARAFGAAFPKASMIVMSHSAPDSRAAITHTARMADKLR
Method in brief: as §1

[3] = molecular target: VIM-1 (Pseudomonas aeruginosa (strain ATCC 15692 / DSM 22644 / CIP 104116 / JCM 14847 / LMG 12228 / 1C / PRS 101 / PAO1), UniProt A0A0F7KYQ8); test: biochemical; details: CCF2-FA substrate, 30 pM enzyme, 2 hours at 25° C.
Method in brief: as §1

[4] = tested on: Escherichia coli expressing NDM-1 (CLB30005, CLB30016); type: cell-based; details: with imipenem 1 μg/ml; 95% inhibition of bacterial growth
Method in brief: (§2)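 Clinical isolates (E. coli NDM-1, S. marcescens IMP-1, K. pneumoniae VIM-1) were diluted 1:100 from saline suspension into 1.1×CAMHB and exposed to test compound with imipenem at 1 μg/ml. Plates were incubated at 35° C for 22 hours to 24 hours, and growth was read by absorbance.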

[5] = tested on: Klebsiella pneumoniae expressing VIM-1 (IHMA599644); type: cell-based; details: with imipenem 1 μg/ml; 95% inhibition of bacterial growth
Method in brief: as §2

[6] = tested on: Serratia marcescens expressing IMP-1 (CL5741); type: cell-based; details: with imipenem 1 μg/ml; 95% inhibition of bacterial growth
Method in brief: as §2

[7] = tested on: Pseudomonas aeruginosa efflux+ (MB9798), IMP-1; type: cell-based; details: concentration restoring susceptibility to imipenem at 2 μg/mL in the presence of a class A, C, D serine β-lactamase inhibitor closely related to relebactam
Method in brief: (§3)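 Microbroth MIC tests in PAO1-background strains with fixed imipenem and/or ceftazidime, usually at the CLSI breakpoint, plus fixed class A/C β-lactamase inhibitor against AmpC. MBL inhibitor titrated; concentration restoring susceptibility recorded and compared as fold difference between efflux+ MB9798 and efflux− MB9799.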

[8] = tested on: Pseudomonas aeruginosa efflux− (MB9799), IMP-1; type: cell-based; details: concentration restoring susceptibility to imipenem at 2 μg/mL in the presence of a class A, C, D serine β-lactamase inhibitor closely related to relebactam
Method in brief: as §3

[9] = tested on: Pseudomonas aeruginosa MB9798 vs MB9799; details: ratio MITC95 PA_9798/MITC95 PA_9799
Method in brief: as §3

[10] = fluorescence assay, read-out: VIM-1 IC50

Chain of IMP-1 (P52699 whole entry, looked up, species assumed): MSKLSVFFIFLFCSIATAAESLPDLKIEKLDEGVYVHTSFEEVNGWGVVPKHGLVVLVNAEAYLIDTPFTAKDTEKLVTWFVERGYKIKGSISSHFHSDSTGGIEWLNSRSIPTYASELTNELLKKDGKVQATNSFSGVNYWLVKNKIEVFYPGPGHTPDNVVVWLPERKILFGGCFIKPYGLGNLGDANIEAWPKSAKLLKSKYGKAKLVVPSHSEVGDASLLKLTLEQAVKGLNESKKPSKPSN

Row | SMILES | IC50 [1] [nM] | IC50 [2] [nM] | IC50 [3, 10] [nM] | Escherichia coli expressing NDM-1 (CLB30016) MITC95 [4] [µM] | Klebsiella pneumoniae expressing VIM-1 (IHMA599644) MITC95 [5] [µM] | Serratia marcescens expressing IMP-1 (CL5741) MITC95 [6] [µM] | P. aeruginosa expressing IMP-1, efflux + (MB9798) MITC95 [7] [µM] | P. aeruginosa expressing IMP-1, efflux − (MB9799) MITC95 [8] [µM] | Efflux ratio [9] | IC50 ([3]; VIM-1 IC50, fluorescence assay) [nM]
1 | NS(=O)(=O)c1c(S(=O)(=O)N[C@@H]2CCNC2)ccc(-c2cccc3nc(O)[nH]c23)c1-c1nnn[nH]1 [Example 130, (R)-4-(2-hydroxy-1H-benzo[d]imidazol-7-yl)-N1-(pyrrolidin-3-yl)-3-(1H-tetrazol-5-yl)benzene-1,2-disulfonamide] | 0.684 | 0.0529 | 0.151 | 1.563 | 3.125 | 1.563 | 0.7813 | 1.563 | 0.50 | –
2 | NS(=O)(=O)c1c(S(=O)(=O)N[C@@H]2CCNC2)ccc(-c2cccc3c2OC(F)(F)O3)c1-c1nnn[nH]1 [Example 131, (R)-4-(2,2-difluorobenzo[d][1,3]dioxol-4-yl)-N1-(pyrrolidin-3-yl)-3-(1H-tetrazol-5-yl)benzene-1,2-disulfonamide] | 1.83 | 0.275 | 0.12 | 1.563 | 1.563 | 3.125 | 12.5 | 0.7813 | 16.00 | –
3 | N#Cc1cccc(-c2ccc(S(=O)(=O)N[C@@H]3CCNC3)c(S(N)(=O)=O)c2-c2nnn[nH]2)c1N [Example 132, (R)-2′-amino-3′-cyano-N4-(pyrrolidin-3-yl)-2-(1H-tetrazol-5-yl)-[1,1′-biphenyl]-3,4-disulfonamide] | 1.4 | 0.114 | 0.124 | 0.7813 | 1.563 | 1.563 | 3.125 | 0.7813 | 4.00 | –
4 | NS(=O)(=O)c1c(S(=O)(=O)N[C@@H]2CCNC2)ccc(-c2ccc3nonc3c2)c1-c1nnn[nH]1 [Example 133, (R)-4-(benzo[c][1,2,5]oxadiazol-5-yl)-N1-(pyrrolidin-3-yl)-3-(1H-tetrazol-5-yl)benzene-1,2-disulfonamide] | 0.816 | 0.341 | 0.118 | 0.7813 | 1.563 | 1.563 | 6.25 | 0.7813 | 8.00 | –
5 | Cn1nnc2ccc(-c3ccc(S(=O)(=O)N[C@@H]4CCNC4)c(S(N)(=O)=O)c3-c3nnn[nH]3)cc21 [Example 134, (R)-4-(1-methyl-1H-benzo[d][1,2,3]triazol-6-yl)-N1-(pyrrolidin-3-yl)-3-(1H-tetrazol-5-yl)benzene-1,2-disulfonamide] | 2.07 | 0.301 | – | 1.563 | 3.125 | 3.125 | 25 | 1.563 | 15.99 | 0.14
6 | NS(=O)(=O)c1ccc(-c2ccc(S(=O)(=O)N[C@@H]3CCNC3)c(S(N)(=O)=O)c2-c2nnn[nH]2)cc1 [Example 135, (R)-N4-(pyrrolidin-3-yl)-2-(1H-tetrazol-5-yl)-[1,1′-biphenyl]-3,4,4′-trisulfonamide] | 0.229 | 0.136 | 0.107 | 1.563 | 1.563 | 1.563 | 0.7813 | 0.7813 | 1.00 | –
7 | CS(=O)(=O)Nc1ccc(-c2ccc(S(=O)(=O)N[C@@H]3CCNC3)c(S(N)(=O)=O)c2-c2nnn[nH]2)cc1 [Example 136, (R)-4′-(methylsulfonamido)-N4-(pyrrolidin-3-yl)-2-(1H-tetrazol-5-yl)-[1,1′-biphenyl]-3,4-disulfonamide] | 0.0755 | 0.0368 | 0.105 | 1.563 | 1.563 | 3.125 | 1.563 | 0.7813 | 2.00 | –
8 | NC(=O)c1ccc(-c2ccc(S(=O)(=O)N[C@@H]3CCNC3)c(S(N)(=O)=O)c2-c2nnn[nH]2)cc1 [Example 137, (R)-4′-(N-(pyrrolidin-3-yl)sulfamoyl)-3′-sulfamoyl-2′-(1H-tetrazol-5-yl)-[1,1′-biphenyl]-4-carboxamide] | 0.265 | 0.126 | 0.157 | 3.125 | 3.125 | 3.125 | 0.7813 | 0.7813 | 1.00 | –
9 | NS(=O)(=O)c1c(S(=O)(=O)N[C@@H]2CCNC2)ccc(-c2ccc3c(c2)C(=O)NC3)c1-c1nnn[nH]1 [Example 138, (R)-4-(3-oxoisoindolin-5-yl)-N1-(pyrrolidin-3-yl)-3-(1H-tetrazol-5-yl)benzene-1,2-disulfonamide] | 0.275 | 0.124 | 0.15 | 3.125 | 3.125 | 3.125 | 1.563 | 1.563 | 1.00 | –
10 | NS(=O)(=O)c1c(S(=O)(=O)N[C@@H]2CCNC2)ccc(-c2cccc3cn[nH]c23)c1-c1nnn[nH]1 [Example 139, (R)-4-(1H-indazol-7-yl)-N1-(pyrrolidin-3-yl)-3-(1H-tetrazol-5-yl)benzene-1,2-disulfonamide] | 0.41 | 0.0582 | – | 0.7813 | 3.125 | 1.563 | 0.7813 | 0.7813 | 1.00 | 0.141
11 | NS(=O)(=O)c1c(S(=O)(=O)N[C@@H]2CCNC2)ccc(-c2cnc3ccccn23)c1-c1nnn[nH]1 [Example 140, (R)-4-(imidazo[1,2-a]pyridin-3-yl)-N1-(pyrrolidin-3-yl)-3-(1H-tetrazol-5-yl)benzene-1,2-disulfonamide] | 0.779 | 0.0867 | 0.111 | 0.7813 | 1.563 | 1.563 | 1.563 | 0.7813 | 2.00 | –
12 | C[C@H]1NC(=O)O[C@H]1c1ccc(-c2ccc(S(=O)(=O)N[C@@H]3CCNC3)c(S(N)(=O)=O)c2-c2nnn[nH]2)cc1 [Example 141, 4′-((4R,5S)-4-methyl-2-oxooxazolidin-5-yl)-N4-((R)-pyrrolidin-3-yl)-2-(1H-tetrazol-5-yl)-[1,1′-biphenyl]-3,4-disulfonamide] | 0.0408 | 0.0186 | 0.0623 | 3.125 | 6.25 | 6.25 | 1.563 | 1.563 | 1.00 | –
